Target: T1, GST-TcK2 (kinase domain of TcK2, T. cruzi K2) (Trypanosoma cruzi, UniProt Q4E5B6)
T1 construct: gene Tc00.1047053506559.129; N-terminal GST fusion (pGEX5X-1), GST kept, 68 kDa; E. coli BL21; transmembrane and N-terminal domains absent
T1 sequence (Q4E5B6 638-984): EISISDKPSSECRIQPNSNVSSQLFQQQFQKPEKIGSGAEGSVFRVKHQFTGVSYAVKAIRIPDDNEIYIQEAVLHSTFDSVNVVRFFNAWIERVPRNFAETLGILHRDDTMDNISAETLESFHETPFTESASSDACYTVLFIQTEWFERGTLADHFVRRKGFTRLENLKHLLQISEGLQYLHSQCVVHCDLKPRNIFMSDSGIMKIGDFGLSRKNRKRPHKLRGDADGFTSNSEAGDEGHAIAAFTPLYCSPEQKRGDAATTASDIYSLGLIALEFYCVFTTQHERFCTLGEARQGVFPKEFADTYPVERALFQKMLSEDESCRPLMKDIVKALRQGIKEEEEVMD
Assay: Soret absorbance titration at […] nm
Format: binding
Details: 0.1 M Tris-HCl pH 7.4, 50 mM NaCl, 25 °C, 30 min incubation; 5 μg/ml protein; GST alone shows no Soret band; read-out: Kd^app

`C=CC1=C(C)C2=Cc3c(C=C)c(C)c4[n]3[Fe]([Cl])[n]3c(c(C)c(CCC(=O)O)c3=CC3=NC(=C4)C(C)=C3CCC(=O)O)=CC1=N2` [hemin] showed a Kd of 2800 ± 600 nM.

— publication PMC4450062, “A Membrane-bound eIF2 Alpha Kinase Located in Endosomes Is Regulated by Heme and Controls Differentiation and ROS Levels in Trypanosoma cruzi” (PLoS Pathogens, 2015)
